Patent US20150099012A1, “METHODS FOR ACTIVATING RETROVIRUS IN LATENT INFECTED CELLS, AND COMPOUNDS FOR USE THEREIN” (Erasmus University Medical Center Rotterdam, priority 2012, published 2015)

Columns and labels:
latent HIV LTR = assay: Activation of latent HIV LTR in J-Lat/S-Lat latently infected cell lines (GFP reporter, FACS); assay type: cell-based, HIV-1; conditions: for de-repression / activation of latent HIV LTR: single agents, J-Lat/S-Lat or 1G5 cells, FIG. 5
Method: A) S-Lat 46, J-Lat P32, J-Lat A2, J-Lat 11.1, S-Lat 24, S-Lat 9 and […], and GFP expression was monitored by FACS analysis to determine activation of the latent LTR. B) J-Lat P32 and (C) S-Lat 30 Jurkats and SupT1 cell lines harbouring latently infected HIV were either untreated or treated with 2, 5 or 10 mM LiCl as indicated. Expression of HIV-LTR driven P24 and GFP, and endogenous Wnt target genes AXIN2, MMP9, TCF1, as well as control GAPDH and NFkB target genes TLR2 and ICAM1 was monitored by qRT-PCR 72 hours after treatment. Expression data are presented as fold induction normalized to Cyclophillin A control.
(§1) Expression data are presented as fold induction normalized to Cyclophillin A control.

[1] = tested on: HIV LTR nucleosomes (DHS1, nuc-1); assay: PCR-based MNase mapping of latent HIV LTR nucleosome structure; assay type: cell-based
Description: The high resolution dynamic nucleosomal structure of latently integrated HIV LTR is mapped in presence or absence of Wnt stimulation.
It is an aspect of this invention that this synergistic effect on LTR nucleosome structure extends to other LTR de-repressors.

latently infected PBMCs = assay: Primary PBMC latency model, HIV expression after treatment; assay type: cell-based; conditions: PBMCs infected with LTR-Tat-IRES-GFP virus, sorted five days after infection
Description: PBMCs were infected with VSV-G pseudotyped LTR-Tat-IRES-GFP virus particles and examined establishment of a latent phenotype, as in the cell line latency models (J-Lat/S-Lat). Briefly, PBMCs were Ficoll-purified from buffycoats of healthy donors, activated with phytohemagglutinin (PHA-L) and Interleukin-2 (IL-2), followed by virus infection. Five days after infection, GFP negative cells were sorted by FACS, placed in culture. […] Thus, even in the context of a fully activated T cell, integration of HIV at select sites will lead to the suppression of HIV transcription.

[2] = tested on: NFkB target genes TLR2 and ICAM1; assay: qRT-PCR of NFkB target genes in latent HIV-infected Jurkat/SupT1 cell lines; assay type: cell-based
Method: as §1
(§2) Latent HIV-infected S-Lat 30 (A) and J-LatP32 (B) were treated with Wnt3A or control conditioned media. Relative mRNA expression levels of endogenous Wnt target genes AXIN2, ZCCHC12, TCF1, MMP9, the HIV P24 Gag and the LTR-reporter GFP, control (GAPDH) and NFkB target genes were quantitated by qRT-PCR. Expression data are presented as fold induction normalized to Cyclophillin A control.
A) S-Lat 46, J-Lat P32, J-Lat A2, J-Lat 11.1, S-Lat 24, S-Lat 9 and S-Lat 30 latently infected Jurkat and SupT1 cell lines were treated with Lithium Chloride (10 mM) for 2 hours, and GFP expression was monitored by FACS analysis to determine activation of the latent LTR. B) J-Lat P32 and (C) S-Lat 30 Jurkats and SupT1 cell lines harbouring latently infected HIV were either untreated or treated with 2, 5 or 10 mM LiCl as indicated. Expression of HIV-LTR driven P24 and GFP, and endogenous Wnt target genes AXIN2, MMP9, TCF1, as well as control GAPDH and NFkB target genes TLR2 and ICAM1 was monitored by qRT-PCR 72 hours after treatment. Expression data are presented as fold induction normalized to Cyclophillin A control.
In addition, latent HIV-infected S-Lat 30 (A) and J-LatP32 (B) were treated with Wnt3A or control conditioned media. Relative mRNA expression levels of endogenous Wnt target genes AXIN2, ZCCHC12, TCF1, MMP9, the HIV P24 Gag and the LTR-reporter GFP, control (GAPDH) and NFkB target genes were quantitated by qRT-PCR. Expression data are presented as fold induction normalized to Cyclophillin A control.

[3] = tested on: Wnt target genes AXIN2, TCF7(TCF1), MMP9, ZCCHC12, MMP2; assay: qRT-PCR of endogenous Wnt target genes in latent HIV-infected Jurkat/SupT1 cell lines; assay type: cell-based
Method: as §1, §2
A) S-Lat 46, J-Lat P32, J-Lat A2, J-Lat 11.1, S-Lat 24, S-Lat 9 and S-Lat 30 latently infected Jurkat and SupT1 cell lines were treated with Lithium Chloride (10 mM) for 2 hours, and GFP expression was monitored by FACS analysis to determine activation of the latent LTR. […] Expression of HIV-LTR driven P24 and GFP, and endogenous Wnt target genes AXIN2, MMP9, TCF1, as well as control GAPDH and NFkB target genes TLR2 and ICAM1 was monitored by qRT-PCR 72 hours after treatment. […]
In addition, latent HIV-infected S-Lat 30 (A) and J-LatP32 (B) were treated with Wnt3A or control conditioned media. Relative mRNA expression levels of endogenous Wnt target genes AXIN2, ZCCHC12, TCF1, MMP9, the HIV P24 Gag and the LTR-reporter GFP, control (GAPDH) and NFkB target genes were quantitated by qRT-PCR. […]

[4] = tested on: latent HIV (P24 Gag, LTR-reporter GFP); assay: qRT-PCR of HIV P24 Gag and LTR-reporter GFP mRNA in latent HIV-infected cell lines; assay type: cell-based
Description: (§3) A) Exogenous expression of S33Y β-catenin in S-Lat30 latent HIV infected cell line results in activation of TCF/LEF-driven TOPFLASH luciferase activity. […] S33Y β-catenin expression also results in a concomitant activation of latent HIV in S-Lat30 HIV infected cell line as quantitated by increased mRNA expression of HIV P24 Gag and the LTR-reporter GFP. Expression data are presented as fold induction normalized to Cyclophillin A control.
as §2
In addition, latent HIV-infected S-Lat 30 (A) and J-LatP32 (B) were treated with Wnt3A or control conditioned media. Relative mRNA expression levels of endogenous Wnt target genes AXIN2, ZCCHC12, TCF1, MMP9, the HIV P24 Gag and the LTR-reporter GFP, control (GAPDH) and NFkB target genes were quantitated by qRT-PCR. Expression data are presented as fold induction normalized to Cyclophillin A control. […]

TCF/LEF-driven TOPFLASH = TCF/LEF-driven TOPFLASH luciferase reporter in S-Lat30; assay type: cell-based; conditions: exogenous expression (nucleofection) in S-Lat30; FIG. 6A
Description: as §3
For example, activation of the Wnt signaling pathway may be measured/quantitated by an increase In TCF-driven transcription in the cell after introduction of TOPFLASH (plasmid with tandem TCF/LEF consensus sites driving expression of the luciferase gene) into the cell via transfection/nucleofection. Increase in TOPFLASH (TCF-driven) and not FOPFLASH (TCF-mutant reporter) indicates activation of the Wnt signaling pathway.
S33Y β-catenin constitutively active mutant: Transfection (by nucleofection) of latent HIV infected cell lines with an expression vector for a constitutively active form of β-catenin, the molecular effector of the Wnt signaling pathway results in activation of latent HIV.

[5] = Wnt3A conditioned media, S-Lat 30 and J-LatP32, FIG. 7
[6] = exogenous expression in S-Lat30, FIG. 6B

## Cc1c[nH]c(-c2cnc(NCCNc3ccc(C#N)cn3)nc2-c2ccc(Cl)cc2Cl)n1 [CHIR-99021, 6-(2-(4-(2,4-Dichlorophenyl)-5-(4-methyl-1H-imidazol-2-yl)-pyrimidin-2-ylamino)ethyl-amino)-nicotinonitrile]
Latent HIV LTR; 1 μM, 24 hours, J-Lat P44, S-Lat 24, J-Lat P21, J-Lat 11.1, S-Lat 9, S-Lat 30, FIG. 8
  activation of the latent LTR (GFP expression by FACS): activation of the HIV LTR

## CCCCCCCCCCCCCC(=O)O[C@@H]1[C@@H](C)[C@@]2(O)[C@@H](C=C(CO)C[C@]3(O)C(=O)C(C)=C[C@@H]23)[C@@H]2C(C)(C)[C@]12OC(C)=O [PMA]
[1]; PMA stimulation
  loosely positioned nucleosomes over DHS1 (MNase mapping): disappear
Latently infected PBMCs
  HIV expression in GFP negative sorted infected PBMCs: activated HIV expression

## CC(=O)O[C@@]12C[C@@H](C)[C@@]3(O)[C@@H](C=C(CO)C[C@]4(O)C(=O)C(C)=C[C@@H]34)[C@@H]1C2(C)C [Prostratin]
[2]; Lithium 1 mM-10 mM, Prostratin as positive control, FIG. 9
  mRNA expression of NFkB target genes TLR2, ICAM1 (RT-PCR): activation of the NFkB target genes TLR2 and ICAM

## CCCC(CCC)C(=O)O [VPA, valproic acid]
Latent HIV LTR
  de-repression / activation of latent HIV LTR: marginal activation
[1]; co-treatment of VPA with Wnt stimulation
  remodelling of nuc-1 (MNase mapping): dramatic remodelling of the repressive nuc-1

## TNFa
Latently infected PBMCs
  HIV expression in GFP negative sorted infected PBMCs: activated HIV expression

## Wnt3A
[3]; [5]
  activation of endogenous Wnt target genes (qRT-PCR): activates latent HIV and endogenous Wnt target genes
Latent HIV LTR
  de-repression / activation of latent HIV LTR: de-repression of latent HIV LTR
[2]; [5]
  activation of NFkB target genes (qRT-PCR): not NFkB target genes
[4]; [5]
  activation of latent HIV (P24 Gag and LTR-reporter GFP mRNA, qRT-PCR): activates latent HIV

B1: R-spondin: LGR ligand, 27 kDa protein, used as R-spondin1-conditioned medium from HEK293T (protein, UniProt Q2MKA7 21-263, looked up)
R-spondin-1: SRGIKGKRQRRISAEGSQACAKGCELCSEVNGCLKCSPKLFILLERNDIRQVGVCLPSCPPGYFDARNPDMNKCIKCKIEHCEACFSHNFCTKCKEGLYLHKGRCYPACPEGSSAANGTMECSSPAQCEMSEWSPWGPCSKKQQLCGFRRGSEERTRRVLHAPVGDHAACSDTKETRRCTVRRVPCPEGQKRRKGGQGRRENANRNLARKESKEAGAGSRRRKGQQQQQQQGTVGPLTSAGPA
modifications: conditioned medium
notes: LGR ligand, 27 kDa protein, used as R-spondin1-conditioned medium from HEK293T
Latent HIV LTR
  de-repression / activation of latent HIV LTR: de-repression of latent HIV LTR

B2: S33Y β-catenin: constitutively active β-catenin mutant, expressed from a nucleofected expression vector (protein, UniProt P35222 2-781, looked up, variant S33Y)
Catenin beta-1: ATQADLMELDMAMEPDRKAAVSHWQQQSYLDYGIHSGATTTAPSLSGKGNPEEEDVDTSQVLYEWEQGFSQSFTQEQVADIDGQYAMTRAQRVRAAMFPETLDEGMQIPSTQFDAAHPTNVQRLAEPSQMLKHAVVNLINYQDDAELATRAIPELTKLLNDEDQVVVNKAAVMVHQLSKKEASRHAIMRSPQMVSAIVRTMQNTNDVETARCTAGTLHNLSHHREGLLAIFKSGGIPALVKMLGSPVDSVLFYAITTLHNLLLHQEGAKMAVRLAGGLQKMVALLNKTNVKFLAITTDCLQILAYGNQESKLIILASGGPQALVNIMRTYTYEKLLWTTSRVLKVLSVCSSNKPAIVEAGGMQALGLHLTDPSQRLVQNCLWTLRNLSDAATKQEGMEGLLGTLVQLLGSDDINVVTCAAGILSNLTCNNYKNKMMVCQVGGIEALVRTVLRAGDREDITEPAICALRHLTSRHQEAEMAQNAVRLHYGLPVVVKLLHPPSHWPLIKATVGLIRNLALCPANHAPLREQGAIPRLVQLLVRAHQDTQRRTSMGGTQQQFVEGVRMEEIVEGCTGALHILARDVHNRIVIRGLNTIPLFVQLLYSPIENIQRVAAGVLCELAQDKEAAEAIEAEGATAPLTELLHSRNEGVATYAAAVLFRMSEDKPQDYKKRLSVELTSSLFRTEPMAWNETADLGLDIGAQGEPLGYRQDDPSYRSFHSGGYGQDALGMDPMMEHEMGGHHPGADYPVDGLPDLGHAQDLMDGLPPGDSNQLAWFDTDL
TCF/LEF-driven TOPFLASH
  TCF-driven TOPFLASH luciferase activity: activation of TCF-driven TOPFLASH luciferase activity
[3]; [6]
  mRNA expression of endogenous Wnt target genes AXIN2, MMP2, TCF1, ZCCHC12, MMP9: increased mRNA expression of the endogenous Wnt target genes
[2]; [6]
  mRNA expression of control gene GAPDH and NFkb target genes TLR2 and ICAM1: not control gene GAPDH, or the NFkb target genes TLR2 and ICAM1
[4]; [6]
  mRNA expression of HIV P24 Gag and LTR-reporter GFP: increased mRNA expression of HIV P24 Gag as well as the LTR-reporter GFP
